Results on three compounds are retold here after patent US20250262172A1 (ANTECIP BIOVENTURES II LLC, priority 2022, published 2025).

The conditions of data set [1]: powder; cited from earlier work.
The nature of data set [2]: Clinical trials of the bupropion and dextromethorphan combination, poor metabolizers vs other patients.
Data set [3] can be described thus: Concomitant use of the subject combination with strong CYP2D6 inhibitors. It counts as in vivo, human. The conditions noted are these: subject combination with one or more strong CYP2D6 inhibitors. The source says: In some embodiments, the subject composition may be co-administered with one or more strong Inhibitors of CYP2D6. […] It is, thus, recommended to monitor patients for adverse effects or adverse reactions potentially attributable to dextromethorphan, such as somnolence and dizziness.

For data set [4] the following is noted: CYP2D6 inhibited by quinidine; vs patients who were not CYP2D6 poor metabolizers; cited from earlier work.
Data set [5] is described as follows: Effect of CYP2D6 poor metabolizer status on pharmacokinetics of the 45 mg dextromethorphan hydrobromide / 105 mg bupropion hydrochloride tablet (Example 3, FIG. 1). As to conditions: CYP2D6 poor metabolizers vs extensive or ultra-extensive metabolizers; after 8 days of twice daily dosing of the tablet.
For data set [6] the following is noted: 7 days of twice-daily 30 mg dextromethorphan and 30 mg quinidine; cited from earlier work.
Data set [7] is described as follows: Pharmacokinetics in 3 CYP2D6 poor metabolizers given bupropion hydrochloride 105 mg and dextromethorphan hydrobromide 45 mg twice a day (Example 1). The conditions noted are these: 3 poor metabolizers; 105 mg bupropion hydrochloride and 45 mg dextromethorphan hydrobromide twice a day.
The nature of data set [8]: Steady state pharmacokinetic data in 12 poor metabolizers in efficacy clinical trials (Example 2). The conditions noted are these: 105 mg bupropion hydrochloride and 45 mg dextromethorphan hydrobromide twice a day.

Turning to `CC(NC(C)(C)C)C(=O)c1cccc(Cl)c1.Cl` (racemic) [Bupropion hydrochloride, (±)-1-(3-chlorophenyl)-2-[(1,1-dimethylethyl)amino]-1-propanone hydrochloride], the solubility in water entry in data set [1] is reported as “highly soluble”.

On to `Br.COc1ccc2c(c1)[C@]13CCCC[C@@H]1[C@H](C2)N(C)CC3` [Dextromethorphan hydrobromide, morphinan, 3-methoxy-17-methyl-, (9α, 13α, 14α), hydrobromide monohydrate], for which the solubility in water entry in data set [1] is “sparingly soluble”.

Turning to `COc1ccc2c(c1)[C@]13CCCC[C@@H]1[C@H](C2)N(C)CC3` [dextromethorphan], the “Cmax and AUC of dextromethorphan in poor metabolizers vs patients who are not poor metabolizers” value in data set [2] is “significantly higher”. Moreover, the “plasma concentrations of dextromethorphan” value in data set [3] is “increases”. In data set [4], the “AUC0-12 of dextromethorphan higher for CYP2D6 poor metabolizers” value is listed as “about 46%” and the “Cmax of dextromethorphan higher for poor metabolizers” value is listed as “about 40%”. Moreover, in data set [5], the “increase in dextromethorphan AUC0-12 (GMR)” value amounted to 3.40 fold and the “increase in dextromethorphan Cmax (GMR)” value is reported as 3.00 fold. Also, in data set [6], the “increase in AUC0-12 of poor metabolizers compared to extensive metabolizers” value is about 1.46 fold and the “increase in Cmax of poor metabolizers compared to extensive metabolizers” value is reported as “about 1.43 fold”. For the same compound, in data set [7], the “increase in dextromethorphan AUC0-12 compared to extensive metabolizers” value is given as about 3.4 fold and the “increase in dextromethorphan Cmax compared to extensive metabolizers” value is given as about 3 fold. In addition, the “plasma concentrations of dextromethorphan vs exposures for non-poor metabolizer” value in data set [8] was “generally higher”.
